Results published in patent publication US9174994B2, “Enhanced treatment regimens using mTor inhibitors” (INTELLIKINE LLC, priority 2011, dated 2015).

Tests used:
p4E-BP1 (T37/46) = experiment: Human peripheral blood mono-nucleocyte biomarker assay (Phosflow, Phase I trial); type: in vivo; conditions: all dosing regimens
Method: A BD Biosciences Phosflow assay was conducted using human peripheral blood cells. Whole blood was lysed and fixed using the provided BD Lyse/Fix buffer and permeabilized with BD Perm III buffer. Peripheral blood cells were isolated and stained using CD33 and CD20 as extracellular markers and p4E-BP1 (T37/46) as the intracellular biomarker. Cell type populations were identified as monocytes (CD33+), granulocytes (CD33 dim), lymphocytes (CD33−), B-cells (CD33−, CD20+) and T &NK cells (CD33−, CD20−) by FACS analysis. The median fluorescense intensity (MFI) of each cell type was analyzed along with the percentage of p4E-BP1 positive cells.
Pharmacodynamic (PD) endpoints were evaluated in surrogate (peripheral blood cells [PBCs], skin) and tumor tissues for the phosphorylation of TORC1-dependent markers (4EBP1/S6), and TORC2-dependent markers (AKT/PRAS40). 50 patients were treated in 3 intermittent dosing regimens; 21 in 6 cohorts ranging 7-40 mg QW, 20 in 5 cohorts ranging 6-20 mg QDx3d QW, and 9 in 3 cohorts ranging 7-13 mg QDxSd QW. […] The MTD for intermittent dosing was not reached. All adverse events (AEs) reported were reversible. The most common (≧20%, n=35) AEs considered possibly related to compound A reported in all 3 dosing regimens included nausea (51%), hyperglycemia (37%), mucosal inflammation (29%), rash (23%), asthenia (23%), vomiting (26%), and diarrhea (20%). […]

[1] = Additional study: grade 3 or greater treatment-emergent adverse events; type: in vivo, human

CC(C)n1nc(-c2ccc3oc(N)nc3c2)c2c(N)ncnc21 [compound A]
4 (14%): Grade 3 or greater TEAE: Hyperglycaemia ([1]; QD Dosing (N = 29))
7 (8%): Grade 3 or greater TEAE: Mucosal Inflammation ([1]; Total (N = 91))
10 (45%): Patients Reporting at least one Grade 3 or greater TEAE ([1]; QW Dosing (N = 22))
7 (24%): Grade 3 or greater TEAE: Rash ([1]; QD Dosing (N = 29))
2 (8%): Grade 3 or greater TEAE: Anaemia ([1]; QDx3d QW (N = 25)) | Grade 3 or greater TEAE: Blood creatinine increase ([1]; QDx3d QW (N = 25)) | Grade 3 or greater TEAE: Lymphopenia ([1]; QDx3d QW (N = 25))
4 (4%): Grade 3 or greater TEAE: Asthenia ([1]; Total (N = 91))
2 (7%): Grade 3 or greater TEAE: Hypokalaemia ([1]; QD Dosing (N = 29)) | Grade 3 or greater TEAE: Hyponatraemia ([1]; QD Dosing (N = 29)) | Grade 3 or greater TEAE: Lymphopenia ([1]; QD Dosing (N = 29)) | Grade 3 or greater TEAE: Pruritus ([1]; QD Dosing (N = 29)) | Grade 3 or greater TEAE: Thrombocytopenia ([1]; QD Dosing (N = 29))
3 (12%): Grade 3 or greater TEAE: Hypophsphataemia ([1]; QDx3d QW (N = 25))
2 (13%): Grade 3 or greater TEAE: Fatigue ([1]; QDx5d QW (N = 15)) | Grade 3 or greater TEAE: Hypophsphataemia ([1]; QDx5d QW (N = 15))
53 (58%): Patients Reporting at least one Grade 3 or greater TEAE ([1]; Total (N = 91))
1 (3%): Grade 3 or greater TEAE: Anaemia ([1]; QD Dosing (N = 29)) | Grade 3 or greater TEAE: Asthenia ([1]; QD Dosing (N = 29)) | Grade 3 or greater TEAE: Diarrhoea ([1]; QD Dosing (N = 29))
9 (10%): Grade 3 or greater TEAE: Hyperglycaemia ([1]; Total (N = 91)) | Grade 3 or greater TEAE: Rash ([1]; Total (N = 91))
Decreases in p4EBP1 levels were seen: p4EBP1 levels in PBC (p4E-BP1 (T37/46))
1 (5%): Grade 3 or greater TEAE: Aspartate aminotransferase increase ([1]; QW Dosing (N = 22)) | Grade 3 or greater TEAE: Asthenia ([1]; QW Dosing (N = 22)) | Grade 3 or greater TEAE: Deep vein thrombosis ([1]; QW Dosing (N = 22)) | Grade 3 or greater TEAE: Diarrhoea ([1]; QW Dosing (N = 22)) | Grade 3 or greater TEAE: Fatigue ([1]; QW Dosing (N = 22)) | Grade 3 or greater TEAE: Gamma-glutamyltransferase increase ([1]; QW Dosing (N = 22)) | Grade 3 or greater TEAE: Hypokalaemia ([1]; QW Dosing (N = 22)) | Grade 3 or greater TEAE: Lymphopenia ([1]; QW Dosing (N = 22)) | Grade 3 or greater TEAE: Muscular weakness ([1]; QW Dosing (N = 22)) | Grade 3 or greater TEAE: Neutropenia ([1]; QW Dosing (N = 22)) | Grade 3 or greater TEAE: Vomiting ([1]; QW Dosing (N = 22))
17 (59%): Patients Reporting at least one Grade 3 or greater TEAE ([1]; QD Dosing (N = 29))
5 (5%): Grade 3 or greater TEAE: Hypophsphataemia ([1]; Total (N = 91))
8 (53%): Patients Reporting at least one Grade 3 or greater TEAE ([1]; QDx5d QW (N = 15))
18 (72%): Patients Reporting at least one Grade 3 or greater TEAE ([1]; QDx3d QW (N = 25))
1 (7%): Grade 3 or greater TEAE: Anaemia ([1]; QDx5d QW (N = 15)) | Grade 3 or greater TEAE: Aspartate aminotransferase increase ([1]; QDx5d QW (N = 15)) | Grade 3 or greater TEAE: Asthenia ([1]; QDx5d QW (N = 15)) | Grade 3 or greater TEAE: Gamma-glutamyltransferase increase ([1]; QDx5d QW (N = 15)) | Grade 3 or greater TEAE: Hyperglycaemia ([1]; QDx5d QW (N = 15)) | Grade 3 or greater TEAE: Lymphopenia ([1]; QDx5d QW (N = 15)) | Grade 3 or greater TEAE: Nausea ([1]; QDx5d QW (N = 15)) | Grade 3 or greater TEAE: Neutropenia ([1]; QDx5d QW (N = 15)) | Grade 3 or greater TEAE: Rash ([1]; QDx5d QW (N = 15)) | Grade 3 or greater TEAE: Vomiting ([1]; QDx5d QW (N = 15))
3 (20%): Grade 3 or greater TEAE: Mucosal Inflammation ([1]; QDx5d QW (N = 15))
0 (0%): Grade 3 or greater TEAE: Aspartate aminotransferase increase ([1]; QD Dosing (N = 29)) | Grade 3 or greater TEAE: Blood creatinine increase ([1]; QD Dosing (N = 29)) | Grade 3 or greater TEAE: Deep vein thrombosis ([1]; QD Dosing (N = 29)) | Grade 3 or greater TEAE: Disease progression ([1]; QD Dosing (N = 29)) | Grade 3 or greater TEAE: Fatigue ([1]; QD Dosing (N = 29)) | Grade 3 or greater TEAE: Gamma-glutamyltransferase increase ([1]; QD Dosing (N = 29)) | Grade 3 or greater TEAE: Hypophsphataemia ([1]; QD Dosing (N = 29)) | Grade 3 or greater TEAE: Mucosal Inflammation ([1]; QD Dosing (N = 29)) | Grade 3 or greater TEAE: Muscular weakness ([1]; QD Dosing (N = 29)) | Grade 3 or greater TEAE: Nausea ([1]; QD Dosing (N = 29)) | Grade 3 or greater TEAE: Neutropenia ([1]; QD Dosing (N = 29)) | Grade 3 or greater TEAE: Vomiting ([1]; QD Dosing (N = 29)) | Grade 3 or greater TEAE: Aspartate aminotransferase increase ([1]; QDx3d QW (N = 25)) | Grade 3 or greater TEAE: Disease progression ([1]; QDx3d QW (N = 25)) | Grade 3 or greater TEAE: Fatigue ([1]; QDx3d QW (N = 25)) | Grade 3 or greater TEAE: Hypokalaemia ([1]; QDx3d QW (N = 25)) | Grade 3 or greater TEAE: Hyponatraemia ([1]; QDx3d QW (N = 25)) | Grade 3 or greater TEAE: Neutropenia ([1]; QDx3d QW (N = 25)) | Grade 3 or greater TEAE: Thrombocytopenia ([1]; QDx3d QW (N = 25)) | Grade 3 or greater TEAE: Blood creatinine increase ([1]; QDx5d QW (N = 15)) | Grade 3 or greater TEAE: Deep vein thrombosis ([1]; QDx5d QW (N = 15)) | Grade 3 or greater TEAE: Diarrhoea ([1]; QDx5d QW (N = 15)) | Grade 3 or greater TEAE: Disease progression ([1]; QDx5d QW (N = 15)) | Grade 3 or greater TEAE: Hypokalaemia ([1]; QDx5d QW (N = 15)) | Grade 3 or greater TEAE: Hyponatraemia ([1]; QDx5d QW (N = 15)) | Grade 3 or greater TEAE: Muscular weakness ([1]; QDx5d QW (N = 15)) | Grade 3 or greater TEAE: Pruritus ([1]; QDx5d QW (N = 15)) | Grade 3 or greater TEAE: Thrombocytopenia ([1]; QDx5d QW (N = 15)) | Grade 3 or greater TEAE: Blood creatinine increase ([1]; QW Dosing (N = 22)) | Grade 3 or greater TEAE: Hyperglycaemia ([1]; QW Dosing (N = 22)) | Grade 3 or greater TEAE: Hyponatraemia ([1]; QW Dosing (N = 22)) | Grade 3 or greater TEAE: Hypophsphataemia ([1]; QW Dosing (N = 22)) | Grade 3 or greater TEAE: Mucosal Inflammation ([1]; QW Dosing (N = 22)) | Grade 3 or greater TEAE: Nausea ([1]; QW Dosing (N = 22)) | Grade 3 or greater TEAE: Pruritus ([1]; QW Dosing (N = 22)) | Grade 3 or greater TEAE: Rash ([1]; QW Dosing (N = 22)) | Grade 3 or greater TEAE: Thrombocytopenia ([1]; QW Dosing (N = 22))
1 (4%): Grade 3 or greater TEAE: Asthenia ([1]; QDx3d QW (N = 25)) | Grade 3 or greater TEAE: Deep vein thrombosis ([1]; QDx3d QW (N = 25)) | Grade 3 or greater TEAE: Diarrhoea ([1]; QDx3d QW (N = 25)) | Grade 3 or greater TEAE: Gamma-glutamyltransferase increase ([1]; QDx3d QW (N = 25)) | Grade 3 or greater TEAE: Muscular weakness ([1]; QDx3d QW (N = 25)) | Grade 3 or greater TEAE: Nausea ([1]; QDx3d QW (N = 25)) | Grade 3 or greater TEAE: Pruritus ([1]; QDx3d QW (N = 25)) | Grade 3 or greater TEAE: Rash ([1]; QDx3d QW (N = 25)) | Grade 3 or greater TEAE: Vomiting ([1]; QDx3d QW (N = 25))
6 (7%): Grade 3 or greater TEAE: Anaemia ([1]; Total (N = 91)) | Grade 3 or greater TEAE: Lymphopenia ([1]; Total (N = 91))
2 (2%): Grade 3 or greater TEAE: Aspartate aminotransferase increase ([1]; Total (N = 91)) | Grade 3 or greater TEAE: Blood creatinine increase ([1]; Total (N = 91)) | Grade 3 or greater TEAE: Deep vein thrombosis ([1]; Total (N = 91)) | Grade 3 or greater TEAE: Disease progression ([1]; Total (N = 91)) | Grade 3 or greater TEAE: Hyponatraemia ([1]; Total (N = 91)) | Grade 3 or greater TEAE: Muscular weakness ([1]; Total (N = 91)) | Grade 3 or greater TEAE: Nausea ([1]; Total (N = 91)) | Grade 3 or greater TEAE: Neutropenia ([1]; Total (N = 91)) | Grade 3 or greater TEAE: Thrombocytopenia ([1]; Total (N = 91))
3 (3%): Grade 3 or greater TEAE: Diarrhoea ([1]; Total (N = 91)) | Grade 3 or greater TEAE: Fatigue ([1]; Total (N = 91)) | Grade 3 or greater TEAE: Gamma-glutamyltransferase increase ([1]; Total (N = 91)) | Grade 3 or greater TEAE: Hypokalaemia ([1]; Total (N = 91)) | Grade 3 or greater TEAE: Pruritus ([1]; Total (N = 91)) | Grade 3 or greater TEAE: Vomiting ([1]; Total (N = 91))
4 (16%): Grade 3 or greater TEAE: Hyperglycaemia ([1]; QDx3d QW (N = 25)) | Grade 3 or greater TEAE: Mucosal Inflammation ([1]; QDx3d QW (N = 25))
2 (9%): Grade 3 or greater TEAE: Anaemia ([1]; QW Dosing (N = 22)) | Grade 3 or greater TEAE: Disease progression ([1]; QW Dosing (N = 22))
